From EP0362382A1, “METHOD OF STERILIZING PLANT POLLEN” (VSESOJUZNY NAUCHNO-ISSLEDOVATELSKY INST. SELSKOKHOZYAISTV. …, priority 1988, dated 1989)

Tested on: tetraploidem Roggen
Assay: Field test of gametocidal activity (sterilisation of anthers), tetraploid rye
Type: in vivo
Details: Sorte Belta; V. Periode der Organogenese; 1%ige wäßrige Emulsion; 6 kg/ha
Source text: (§1) Die gametozide Aktivitat der erfindungsgemäßen Sterilisationsmittel war im Feldversuch in verschiedenen bodenklimatischen Zonen mit Teilstücken von 10 m^2 Größe in drei- bis viermaliger Wiederholung festgestellt. Jedes Sterilisationsmittel wurde mindenstens 5 Jahre lang geprüft.
(§2) Die Entwicklung der Perioden der Organogenese wird zytologisch überwacht. Die Behandlung von Pflanzen mit dem Sterilisationsmittel erfolgt am Anfang der fünften Periode der Organogenese nach Kupermann.
(§3) Mit dem Ährenschieben verwirklicht man die Isolierung von Hauptähren und anderen Stockwerken in Pergamentbeuteln. Bei Weizen und Tritikale werden Einzelisolatoren benutzt. Bei Roggen schließt man je Ähre 5 bis 7 verschiedene nebeneinander befindliche Pflanzen unter einen gemeinsamen Isolator ein. Bei Hierse wird jede Rispe getrennt isoliert. Der Sterilitätsprozentsatz (X) für Weizen, Roggen, Tritikale und Hirse wird nach der Formel [formula] ermittelt.
(§4) Die Kornzahl in nicht isolierten Ähren von Kontrollpflanzen wird bedingt für 100 % Ansetzen bei freier Bestäubung angenommen.
(§5) Um zuverlässige Angaben zu erhalten, verwendet man 20 bis 25 Isolatoren jeder Wiederholung für Weizen und Tritikale, 10 .bis 15 Isolatoren jeder Wiederholung für Roggen und Hirse.
Pflanzen von tetraploidem Roggen Sorte Belta werden in der V. Periode der Organogenese (nach Kupermann) mit 1%iger wäßriger Emulsion von d, δ' -Thiodivaleriansäure, Natriumsalz der δ, δ' -Thiodivaleriansäure, δ, δ' -Sulfonylvaleriansäure, Natriumsalz der δ, δ' -Sulfonyldivaleriansäure, Kaliumsalz der d, δ' -Sulfonyldivaleriansäure, Bis(di-n-butyläther) der δ, δ' -Thiodivaleriansäure, Bis(2-Äthylhexyläther) der δ, δ'-Thiodivaleriansäure, 4-Karboxybutyldezylsulfid behandelt. Die Emulsion enthält 0,1 Masse% Kalziumalkylbenzolaulfonat und 0,01 Masse% Dimethylsulfoxid. Der Verbrauch an Präparat beträgt 6 kg/ha. Als Kontrolle dienen Pflanzen, behandelt mit einem Verdünner ohne Sterilisationsmittel. Die Prüfergebnisse sind in der Tabelle 11 angegeben. […] Periode der Organogese erhalten.

Row | Structure (SMILES) | Anzahl von Körnern der Ähre bei freier Bestäubung | Anzahl von Körnern der Ähre im Isolator | Prozentsatz der Sterilität | Prozentsatz des Ansetzens von Körnern bei freier Bestäubung
1 | O=C(O)CCCCSCCCCC(=O)O [Beispiel 51, d, δ' -Thiodivaleriansäure] | 32,9 | 0,3 | 99,3% | 74,4%
2 | O=C(O)CCCCSCCCCC(=O)O [Beispiel 52, Natriumsalz der δ, δ' -Thiodivaleriansäure] | 40,6 | 0,1 | 99,8% | 91,8%
3 | O=C(O)CCCCS(=O)(=O)CCCCC(=O)O [Beispiel 53, δ, δ' -Sulfonylvaleriansäure] | 39,0 | 0,0 | 100,0% | 88,2%
4 | O=C(O)CCCCS(=O)(=O)CCCCC(=O)O [Beispiel 54, Natriumsalz der δ, δ' -Sulfonyldivaleriansäure] | 34,6 | 0,0 | 100,0% | 78,2%
5 | O=C(O)CCCCS(=O)(=O)CCCCC(=O)O [Beispiel 55, Kaliumsalz der d, δ' -Sulfonyldivaleriansäure] | 34,0 | 0,0 | 100,0% | 76,9%
6 | CCCCOC(=O)CCCCSCCCCC(=O)OCCCC [Beispiel 56, Bis(di-n-butyläther) der δ, δ' -Thiodivaleriansäure] | 38,2 | 0,0 | 100,0% | 86,7%
7 | CCCCC(CC)COC(=O)CCCCSCCCCC(=O)OCC(CC)CCCC (stereo not drawn) [Beispiel 57, Bis(2-Äthylhexyläther) der δ, δ'-Thiodivaleriansäure] | 42,7 | 0,0 | 100,0% | 96,6%
8 | CCCCCCCCCCSCCCCC(=O)O [Beispiel 58, 4-Karboxybutyldezylsulfid] | 40,3 | 0,0 | 100,0% | 91,2%

Tested on: Tritikale
Assay: Field test of gametocidal activity (sterilisation of anthers), triticale
Type: in vivo
Details: PRAG 109; V. Periode der Organogenese; 1,5%ige wäßrige Emulsion; 15 kg/ha
Source text: as §1, §2, §3, §4, §5
Pflanzen von Tritikale PRAG 109 werden in der V. Periode der Organogenese (nach Kupermann) mit 1,5%iger wäßriger Emulsion von Bis(di-n-butyläther) der δ, δ' -Thiodivaleriansäure, 4-Kaxboxybutyldezylsulfid, Bis(2-Äthylhexyläther) der δ, δ' -Thiodivaleriansäure behandelt. Die Emulsion enthält 0,1 Masse% Kalziumalkylbenzolsulfonat mit 12 bis 14 Kohlenstoffatomen und 0,01 Masse% Tetrahydrofuran. Der Verbrauch an Präparat beträgt 15 kg/ha. Als Kontrolle dienen Pflanzen, behandelt mit einem Verdünner ohne Sterilisationsmittel. Die Prüfergebnisse sind in der Tabelle 12 angegeben. […] Periode der Organogenese erhalten.
Pflanzen von Tritikale der Sorte Amphidiploid 206 werden in der V. Periode der Organogenese (nach Kupermann) mit 1,5%iger wäßriger Emulsion von Natriumsalz der δ, δ'-Thiodivaleriansäure, δ, δ' -Sulfonyldivaleriansäure Kaliumsalz der d , δ' -Sulfonyldivaleriansäure behandelt. Die Emulsion enthalt 0,1 Masse% Kalziumalkylbenzolsulfonat mit 12 bis 14 Kohlenstoffatomen und 0,01 Masse% Dodezylsulfat. Der Verbrauch an Präparat beträgt 9 kg/ha. Als Kontrolle dienen Pflanzen, behandelt mit einem Verdünner ohne Sterilisationsmittel. Die Prüfergebnisse sind in der Tabelle 13 angegeben. […] Periode der Organogenese erhalten.

Row | Structure (SMILES) | Anzahl von Körnern der Ähre bei freier Bestäubung | Anzahl von Körnern der Ähre im Isolator | Prozentsatz der Sterilität | Prozentsatz des Ansetzens von Körnern bei freier Bestäubung
9 | CCCCOC(=O)CCCCSCCCCC(=O)OCCCC [Beispiel 59, Bis(di-n-butyläther) der δ, δ' -Thiodivaleriansäure] | 40,1 | 0,3 | 99,3% | 87,6%
10 | CCCCCCCCCCSCCCCC(=O)O [Beispiel 60, 4-Kaxboxybutyldezylsulfid] | 42,3 | 0,0 | 100,0% | 92,4%
11 | CCCCC(CC)COC(=O)CCCCSCCCCC(=O)OCC(CC)CCCC (stereo not drawn) [Beispiel 61, Bis(2-Äthylhexyläther) der δ, δ' -Thiodivaleriansäure] | 40,8 | 0,0 | 100,0% | 89,1%

Same assay, conditions: Sorte Amphidiploid 206; V. Periode der Organogenese; 1,5%ige wäßrige Emulsion; 9 kg/ha

Row | Structure (SMILES) | Anzahl von Körnern der Ähre bei freier Bestäubung | Anzahl von Körnern der Ähre im Isolator | Prozentsatz der Sterilität | Prozentsatz des Ansetzens von Körnern bei freier Bestäubung
12 | O=C(O)CCCCSCCCCC(=O)O [Beispiel 62, Natriumsalz der δ, δ'-Thiodivaleriansäure] | 32,5 | 0,9 | 97,2% | 88,8%
13 | O=C(O)CCCCS(=O)(=O)CCCCC(=O)O [Beispiel 63, δ, δ' -Sulfonyldivaleriansäure] | 30,1 | 0,1 | 99,7% | 82,2%
14 | O=C(O)CCCCS(=O)(=O)CCCCC(=O)O [Beispiel 64, Kaliumsalz der d , δ' -Sulfonyldivaleriansäure] | 29,8 | 0,0 | 100,0% | 81,4%

Tested on: Sonnenblume
Assay: Field test of chemical sterilisation of sunflower pollen
Type: in vivo
Details: Linie BK-373 (WK-373); V. Periode der Organogenese; Beispiel 78: 2%ige, 79: 0,2%ige Emulsion
Source text: as §1, §2
Zur Kontrolle der chemischen Sterilisation des Sonnenblumenpollens werden für jede Verbindung 45 behandelte Pflanzen jeder Wiederholung benutzt, wobei 15 Pflanzen von denen zwecks Selbsbestäubung isoliert werden, Blütenkorbchen anderer 15 Pflanzen mit einem Pollengemisch, gesammelt von 20 bis 25 behandelten isolierten Körbchen, bestäubt werden, und 15 Pflanzen für freie Bestäubung gelassen werden, damit das Ansetzen von Achänen mit dem Pollen der väterlichen Form kontrolliert werden kann.
Man beurteilt die Pollensterilität von Pflanzen der Sonnenblume nach der Pollenfertilität und -keimfähigkeit, nach den morphologischen Besonderheiten von Spermien und nach der Fähigkeit von Achänen zum Ansetzen bei der Bestäubung der behandelten isolierten Pflanzen mit dem Pollen der unbehandelten väterlichen Form. Die Lebensfähigkeit der Eizelle wird nach der Samenbildung von behandelten Pflanzen bei freier Bestäubung mit der väterlichen Form bestimmt.
Man behandelt die Sonnenblume Sorte BHNNMK 8931 (WNIIMK 8931) in der V. Periode der Organogenese mit 0,5%iger wäßriger Emulsion von 4-Karboxybutyldezylsulfid, mit 1%iger Emulsion der δ, δ' -Sulfonyldivaleriansäure, 2%iger Emulsion von Bis(2-äthylhexyläther) der δ, δ' -Thiodivaleriansäure; die Sonnenblume der Linie BK-373 (WK-373) mit 2%iger Emulsion von Bis(2-äthylhexyläther) der δ δ' --Thiodivaleriansäure, mit 0,2%iger Emulsion von Bis(di--n-butyläther) der δ, δ' -Thiodivaleriansäure; die Sonnenblume der Linie BK=364 (WK-365) mit 2%iger wäßriger Emulsion von Bis(2-äthylhexyläther) der δ, δ' -Thirodivaleriansäure, mit 0,2%iger Emulsion von Bis(di-n-butyläther) der δ, δ' -Thiodivaleriansäure. Die Emulsion enthält 0,1 Masse% Kalziumalkylbenzolsulfonat mit 12 bis 14 Kohlenstoffatomen und 0,01 Masse% Dimethylsulfoxid. Als Kontrolle dienen Pflanzen, behandelt mit einem Verdünner ohne Sterilisationsmittel. Die Prüfergebnisse sind in der Tabelle 17 angegeben. […] Periode der Organogenese erhalten.

Row | Structure (SMILES) | Prozentsatz der Sterilität | Prozentsatz des Ansetzens von Achänen bei freier Bestäubung
15 | CCCCC(CC)COC(=O)CCCCSCCCCC(=O)OCC(CC)CCCC (stereo not drawn) [Beispiel 78, Bis(2-äthylhexyläther) der δ δ' --Thiodivaleriansäure] | 100,0% | 60,7%
16 | CCCCOC(=O)CCCCSCCCCC(=O)OCCCC [Beispiel 79, Bis(di--n-butyläther) der δ, δ' -Thiodivaleriansäure] | 100,0% | 62,7%

Same assay, conditions: Sorte ВНИИМК 8931 (WNIIMK 8931); V. Periode der Organogenese; Beispiel 75: 0,5%ige, 76: 1%ige, 77: 2%ige Emulsion

Row | Structure (SMILES) | Prozentsatz der Sterilität | Prozentsatz des Ansetzens von Achänen bei freier Bestäubung
17 | CCCCCCCCCCSCCCCC(=O)O [Beispiel 75, 4-Karboxybutyldezylsulfid] | 100,0% | 82,9%
18 | O=C(O)CCCCS(=O)(=O)CCCCC(=O)O [Beispiel 76, δ, δ' -Sulfonyldivaleriansäure] | 100,0% | 71,6%
19 | CCCCC(CC)COC(=O)CCCCSCCCCC(=O)OCC(CC)CCCC (stereo not drawn) [Beispiel 77, Bis(2-äthylhexyläther) der δ, δ' -Thiodivaleriansäure] | 100,0% | 82,1%
